Patent US12714712B2, “Combination therapy with a mutant IDH inhibitor and a Bcl-2 inhibitor” (Eli Lilly and Company, priority 2020, dated 2026)
Where “and” joins values, the source holds several entries; their conditions need not be identical. Equal values may be shown once. Each block holds one compound with its values, some of them ahead of it.

Columns and labels:
[1] = tested on: AML-PDX; assay: AML-PDX Model; format: in vivo, NSG mice; settings: peripheral blood, following 6 weeks of treatment, individual animals
Experimental: Male NSG mice (6-9 weeks of age, The Jackson Laboratory) are irradiated with 250 cGy and on the next day, injected intravenously with AML-PDX (1×10^6 cells/100 μL). Peripheral blood is collected via the retro-orbital route and processed to measure hCD45+ cells by flow cytometry to confirm the establishment of leukemia. When leukemia engraftment reaches more than 1%, mice are randomly grouped for treatment with vehicle, Compound A (10 mg/kg, daily oral gavage), venetoclax (50 mg/kg, oral gavage for 2 weeks on and 1 week off (2 cycles)) or the combination of venetoclax (50 mg/kg, oral gavage for 2 weeks on and 1 week off (2 cycles)) and Compound A (10 mg/kg, daily oral gavage). Additional dosing may be employed beyond the 2 cycles stated above based on the assessment of the level of residual disease remaining following 6 weeks of treatment. Peripheral blood is collected once every two weeks via the retro-orbital route and processed to measure leukemia burden (% hCD33+/hCD45+ cells) by flow cytometry, and to measure differentiation (% hCD14+ cells percentage out of total hCD45+ cells)). Sixty-five μL stain/wash buffer (5% heat inactivated (HI)-FBS in DPBS) is added per tube, mixed up and down 3 to 4 times by pipette, and 100 μL of the blood suspension is transferred to 5 mL polypropylene tubes. The stains are added according to the manufacturer's instructions (anti-human CD33-APC (BD Biosciences cat #551378), anti-human CD14-PE-Cy7 (BD Biosciences cat #557742), anti-human CD45-APC-Cy7 (BD Biosciences cat #557833). The samples are incubated for 30 minutes at room temperature, protected from light. After the incubation, 1.5 mL 1× BD Lyse/Fix buffer (37° C., (BD #558049)) is added to each sample and incubated for 12 minutes at room temperature. The tubes are then centrifuged at 1500 RPMI for 5 minutes. BD Lyse/Fix solution is aspirated and the cell pellet washed with stain/wash buffer 2 times. Fixed cells are then resuspended in 200 μL stain/wash buffer then transferred to filtered flow tubes. Samples are analyzed on a Gallios Flow cytometer (Beckman, Texas) using standard flow cytometry principles and technique. Population gating and data analysis of percent population are performed in the Flow Jo software.

[2] = tested on: MOLM14 wild-type and MOLM14 R132 cells; assay: Cell Viability Assay (Annexin V/DAPI flow cytometry: % viable cells and % apoptosis); format: cell-based, human
Experimental: MOLM14 wild-type and MOLM14 R132 cells are treated with 2 μg/ml doxycycline to induce expression of IDH1 WT and IDH1-R132H and then incubated at 37 degrees C. for 4 days. Cells are seeded in 4 (12 wells) plates at 10,000 cells/well in 1 mL growth media containing 2 ug/mL doxycycline.
Cells are treated with: DMSO (in triplicate), or with Compound A at 0, 125, 250, 500, 1000 nM (each in triplicate) as described in the following: After the initial induction described above, 0.5 mL media with 1× of doxycycline plus 1× Compound A or DMSO is added and incubated for 3 days. After the 3 days, another 0.5 mL aliquot of fresh media with 1×doxycyline plus 1×compound A or DMSO is added and incubated for 3 further days. Venetoclax (0, 25, 50, 100, 200 nM) is then added as a single agent or in combination with 1× Compound A. Two days later, cells are collected in flow cytometry filtered tubes, and processed for flow cytometry. Cells are washed with Annexin V Binding Buffer (ABB, 2 mL) [1 M Hepes buffer (10 mL), 5 M NaCl (28 mL), 1 M CaCl2 (5 mL), H2O (957 mL)], and then centrifuged at 1500 rpm for 5 min. Cells are stained with ABB (50 μL), with APC Annexin V Antibody (1 μL, Biolegend cat #640941), and kept in the dark for 20 minutes. Cells are washed with ABB (2 mL) and centrifuged at 1500 rpm for 5 min. DAPI (Invitrogen cat #D3571) and counting beads (Invitrogen cat #C36950) are added in Annexin V binding buffer [DAPI (5 μL, 2 μg/mL)+counting beads (5 μL (520,000 beads per 50 μL))+ABB (150 μL)] in a total volume 160 μL/tube, then analyzed with a Gallios flow cytometer (Beckman Coulter). Cells collection is stopped when counting beads reach 250 beads per sample. Kalusa software is used for analysis. The percentage of gated Annexin V-negative/DAPI-negative cells constitutes % viable cells, while the percentage of Annexin V-positive cells constitutes % apoptosis.

[3] = target: T1, mutant IDH1 (IDH1 R132H) in MOLM14 R132 cell line construct (Homo sapiens, UniProt O75874, R132H); assay: 2-HG Inhibition Assay (LC-MS of cell culture supernatant); format: cell-based; settings: for 2-HG: 4 days, MOLM14 R132, doxycycline-induced, culture media
T1 construct: FLAG; host or cells: MOLM14 human leukemia cells (lentiviral, doxycycline-induced)
From the text: MOLM14 wild-type human leukemia cells and a MOLM14 R132 construct cell line are generated by lentiviral transfection of MOLM14 cells using IDH1 WT (doxycycline inducible) pSLIK-IDH1-FLAG (Addgene Plasmid #66802) and IDH1 R132H (doxycycline inducible) pSLIK-IDH1-R132H-FLAG (Addgene Plasmid #66803), and is kindly provided by Dr. Jean-Emmanuel Sarry (Centre de Recherches en Cancérologie de Toulouse, UMR1037, Inserm, Université de Toulouse 3 Paul Sabatier, Toulouse, France; bioRxiv 749580; doi.org/10.1101/749580). MOLM14-WT and MOLM14-R132 mutant cells are seeded in 6 well plates (lx 10^6/well) in 5 ml of complete RPMI medium containing 10% FBS (Sigma) and 1× Pen/Strep (Sigma). After induction with 2 μg/ml doxycycline, the cells are incubated in 37 degree for 4 days.
Cells are seeded in 12 wells plates (100,000 cells/well) in 1 mL, in triplicate. Cells are treated with 2 μg/ml doxycycline to induce IDH1 expression, then treated with DMSO, 0.1 or 1 μM Compound A, and incubated at 37 degrees C. for 4 days.
65 μL of media are collected and centrifuged, and 60 μL of the supernatant media are collected and frozen at −80 degrees C.
LCMS 2-HG Metabolite Analysis.
The effects of IDH1 inhibition on the concentrations of total 2-HG and (α-KG) are determined by liquid chromatography-mass spectrometry (LC-MS) analysis of cell culture supernatant. Calibration curves are prepared by spiking 2-HG and α-KG into cell culture media. The method utilizes derivatization with O-benzylhydroxylamine prior to analysis by LC-MS. Ten microliters of each standard or sample is placed into a deep-well 96-well plate and combined with 100 μL of internal standard solution containing 10 μM d5-2-hydroxyglutarate and 10 μM d6-α-KG. 50 μL of 1 M O-benzylhydroxylamine in pyridine buffer (8.6% pyridine, pH 5) and 50 μL of 1 M N-(3-dimethylaminopropyl)-N-ethylcarbodiimide hydrochloride (EDC) in pyridine buffer is added to each sample. The derivatization reaction proceeds at room temperature for one hour. […] Analyte concentrations for the unknowns are back-calculated from the calibration curves.

[4] = tested on: mutant IDH1; settings: from WO 2018/111707 A1; cited from earlier work
[5] = venetoclax 50 mg/kg oral gavage, 2 weeks on and 1 week off (2 cycles)
[6] = Compound A 10 mg/kg daily oral gavage, 10 mg/kg

T1 sequence (O75874 whole entry R132H): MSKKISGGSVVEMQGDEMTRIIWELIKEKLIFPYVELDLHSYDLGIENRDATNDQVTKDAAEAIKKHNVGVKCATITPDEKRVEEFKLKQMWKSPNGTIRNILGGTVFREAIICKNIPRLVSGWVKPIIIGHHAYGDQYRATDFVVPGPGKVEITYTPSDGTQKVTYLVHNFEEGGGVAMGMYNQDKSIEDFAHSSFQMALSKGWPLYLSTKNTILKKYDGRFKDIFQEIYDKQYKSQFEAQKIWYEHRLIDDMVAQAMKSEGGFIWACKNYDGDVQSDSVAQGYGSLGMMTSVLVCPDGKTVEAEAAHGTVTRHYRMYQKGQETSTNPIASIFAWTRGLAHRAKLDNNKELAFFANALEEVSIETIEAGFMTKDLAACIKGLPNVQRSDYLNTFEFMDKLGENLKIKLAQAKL

Structure (SMILES): CC1(C)CCC(CN2CCN(c3ccc(C(=O)NS(=O)(=O)c4ccc(NCC5CCOCC5)c([N+](=O)[O-])c4)c(Oc4cnc5[nH]ccc5c4)c3)CC2)=C(c2ccc(Cl)cc2)C1 [Venetoclax, venetoclax, reference compound]
AML cell differentiation (% hCD14+ of hCD45+) [1, 5]: 37.7% and 26% and 40.7% and 32.6%
Leukemic burden (% hCD33+hCD45+ of total white cells) [1, 5]: 10.1% and 63% and 14.1% and 54.9%
viability at 0.025 µM ([2]; Homo sapiens, MOLM-14, 48 h, venetoclax 25 nM alone, 2 days): 76.1%
viability at 0.05 µM ([2]; Homo sapiens, MOLM-14, 48 h, venetoclax 50 nM alone, 2 days): 76.9%
viability at 0.1 µM ([2]; Homo sapiens, MOLM-14, 48 h, venetoclax 100 nM alone, 2 days): 70.4%
viability at 0.2 µM ([2]; Homo sapiens, MOLM-14, 48 h, venetoclax 200 nM alone, 2 days): 55.2%
% Annexin V + as a measure of apoptosis ([2]; venetoclax 25 nM alone): 19.1% and 15.93% and 19.16%
% Cell Viability ([2]; venetoclax 25 nM alone, 2 days): 81.78% and 77.84%
% Annexin V + as a measure of apoptosis ([2]; venetoclax 50 nM alone): 18.22% and 16.34% and 17.15%
% Cell Viability ([2]; venetoclax 50 nM alone, 2 days): 80.63% and 78.78%
% Annexin V + as a measure of apoptosis ([2]; venetoclax 100 nM alone): 24.62% and 18.98% and 22.98%
% Cell Viability ([2]; venetoclax 100 nM alone, 2 days): 73.78%
% Annexin V + as a measure of apoptosis ([2]; venetoclax 200 nM alone): 41.67% and 35.73% and 41.22%
% Cell Viability ([2]; venetoclax 200 nM alone, 2 days): 59.27% and 56.31%

2-HG ([3]; 0.1 μM Compound A): 3.369 µM and 3.044 µM and 3.488 µM
2-HG ([3]; 1 μM Compound A): 3.578 µM and 3.199 µM and 3.378 µM
2-HG production by mutant IDH1 (in words) ([3]; MOLM14 R132 cell line construct): inhibits 2-HG production
Structure (SMILES): C=CC(=O)N1CCN([C@@H](CC2CC2)c2ccc([C@H](C)Nc3ncc4c(n3)N(CC)C(=O)OC4)cc2)CC1 [Compound A, 7-[[(1S)-1-[4-[(1S)-2-cyclopropyl-1-(4-prop-2-enoylpiperazin-1-yl)ethyl]phenyl]ethyl]amino]-1-ethyl-4H-pyrimido[4,5-d][1,3]oxazin-2-one]
AML cell differentiation (% hCD14+ of hCD45+) [1, 6]: 44.1% and 58.3% and 63.6% and 64.1% and 51.7% and 58.9%
Leukemic burden (% hCD33+hCD45+ of total white cells) [1, 6]: 87.8% and 88.5% and 51.5% and 65.6% and 85.1% and 81.9%
% Annexin V + as a measure of apoptosis ([2]; Compound A 125 nM alone): 5.56% and 4.3% and 5.12%
% Cell Viability ([2]; Compound A 125 nM alone): 95.14% and 94.27%
% Annexin V + as a measure of apoptosis ([2]; Compound A 250 nM alone): 6.18% and 4.95% and 4.92%
% Cell Viability ([2]; Compound A 250 nM alone): 94.27% and 94.41%
% Annexin V + as a measure of apoptosis ([2]; Compound A 500 nM alone): 5.82% and 5.23% and 5.19%
% Cell Viability ([2]; Compound A 500 nM alone): 93.92% and 94.15%
% Annexin V + as a measure of apoptosis ([2]; Compound A 1000 nM alone): 7.2% and 5.51% and 7.52%
% Cell Viability ([2]; Compound A 1000 nM alone): 93.98% and 91.68%
viability at 0.125 µM ([2]; Homo sapiens, MOLM-14, Compound A 125 nM alone): 93.7%
viability at 0.25 µM ([2]; Homo sapiens, MOLM-14, Compound A 250 nM alone): 93.3%
viability at 0.5 µM ([2]; Homo sapiens, MOLM-14, Compound A 500 nM alone): 93.7%
viability at 1 µM ([2]; Homo sapiens, MOLM-14, Compound A 1000 nM alone): 92%
2-HG production (in words) [4]: selectively inhibits 2-HG production
α-KG levels (in words) [4]: without affecting α—KG levels
